# Activity calls are given as the source filed them. The rule behind the calls is not given here.
# Experiments:
# [1] = Toxicity in Kunming mouse model of subcutaneous abscess infected with Staphylococcus aureus assessed as damage in lung at 5 to 10 mg/kg, sc measured after 48 hrs by H and E staining based analysis; format: organism-based; details: in vivo, dose 5-10 mg/kg
# [2] = system: Staphylococcus aureus; assay: Bactericidal activity against rifampicin-induced persistant Staphylococcus aureus at 32 times MIC measured for 10 hrs; format: functional, organism-based
# [3] = system: Staphylococcus aureus; assay: Antibacterial activity against Staphylococcus aureus infected in Kunming mouse model of subcutaneous abscess assessed as reduction in bacterial load in skin tissue at 10 mg/kg, sc measured after 48 hrs relative to control; format: functional; set-up: scale not given: the % may be the effect or the level left
# [4] = Toxicity in Kunming mouse model of subcutaneous abscess infected with Staphylococcus aureus assessed as histopathological abnormalities in liver at 5 to 10 mg/kg, sc measured after 48 hrs by H and E staining based analysis; format: organism-based; details: in vivo, dose 5-10 mg/kg
# [5] = Toxicity in Kunming mouse model of subcutaneous abscess infected with Staphylococcus aureus assessed as damage in spleen at 5 to 10 mg/kg, sc measured after 48 hrs by H and E staining based analysis; format: organism-based; details: in vivo, dose 5-10 mg/kg
# [6] = system: Staphylococcus aureus; assay: Induction of resistance development in drug-resistant Staphylococcus aureus at sub-MIC measured after 20 passages in presence of vancomycin; format: functional, organism-based
# [7] = system: Staphylococcus aureus; assay: Inhibition of metabolic activity in Staphylococcus aureus incubated for 6 hrs by Alamar blue assay; format: functional, organism-based
# [8] = Cytotoxicity against HUVEC cells incubated for 24 hrs by CCK8 assay; format: toxicity, cell-based; details: human
# [9] = system: Staphylococcus aureus; assay: Disruption of cell membrane in Staphylococcus aureus assessed as protein leakage measured after 2 hrs by fluorescence based analysis; format: functional, organism-based; details: dose 8-32 µg/ml
# [10] = system: Stenotrophomonas maltophilia; assay: Antimicrobial activity against Stenotrophomonas maltophilia incubated for 16 to 18 hrs by broth dilution assay; format: functional; details: time 16-18 hrs
# [11] = system: Staphylococcus aureus; assay: Induction of resistance development in drug-resistant Staphylococcus aureus at sub-MIC measured after 20 passages in presence of norfloxacin; format: functional, organism-based
# [12] = system: Staphylococcus aureus; assay: Induction of resistance development in drug-resistant Staphylococcus aureus at sub-MIC measured after 20 passages in presence of linezolid; format: functional, organism-based
# [13] = Toxicity in Kunming mouse model of subcutaneous abscess infected with Staphylococcus aureus assessed as histopathological abnormalities in heart at 5 to 10 mg/kg, sc measured after 48 hrs by H and E staining based analysis; format: organism-based; details: in vivo, dose 5-10 mg/kg
# [14] = system: Staphylococcus aureus; assay: Induction of intracellular ROS accumulation in Staphylococcus aureus incubated overnight by DCFH-DA dye based analysis; format: functional, organism-based
# [15] = Toxicity in Kunming mouse model of subcutaneous abscess infected with Staphylococcus aureus assessed as histopathological abnormalities in lung at 5 to 10 mg/kg, sc measured after 48 hrs by H and E staining based analysis; format: organism-based; details: in vivo, dose 5-10 mg/kg
# [16] = system: Staphylococcus aureus; assay: Antibacterial activity against Staphylococcus aureus in presence of 50% FBS; format: functional, organism-based
# [17] = system: Escherichia coli; assay: Antimicrobial activity against Escherichia coli incubated for 16 to 18 hrs by broth dilution assay; format: functional; details: time 16-18 hrs
# [18] = system: Staphylococcus aureus; assay: Induction of resistance development in drug-resistant Staphylococcus aureus at sub-MIC measured after 20 passages in presence of ciprofloxacin; format: functional, organism-based
# [19] = system: Staphylococcus aureus; assay: Antibacterial activity against Staphylococcus aureus infected in Kunming mouse model of subcutaneous abscess assessed as reduction in number of bacteria in skin tissue at 5 to 10 mg/kg, sc measured after 48 hrs; format: functional, organism-based; details: dose 5-10 mg/kg
# [20] = Cytotoxicity against human HeLa cells incubated for 24 hrs by CCK8 assay; format: toxicity, cell-based
# [21] = Toxicity in Kunming mouse model of subcutaneous abscess infected with Staphylococcus aureus assessed as histopathological abnormalities in spleen at 5 to 10 mg/kg, sc measured after 48 hrs by H and E staining based analysis; format: organism-based; details: in vivo, dose 5-10 mg/kg
# [22] = system: Staphylococcus aureus; assay: Antibacterial activity against Staphylococcus aureus infected in Kunming mouse model of subcutaneous abscess assessed as decrease in inflammation in skin tissue at 5 mg/kg, sc measured after 48 hrs by H and E staining based analysis; format: functional, organism-based
# [23] = system: Staphylococcus aureus; assay: Inhibition of biofilm formation in Staphylococcus aureus at 16 times MIC incubated for 24 hrs; format: functional, organism-based
# [24] = system: Enterococcus faecalis; assay: Antimicrobial activity against Enterococcus faecalis incubated for 16 to 18 hrs by broth dilution assay; format: functional; details: time 16-18 hrs
# [25] = system: Staphylococcus aureus; assay: Antibacterial activity against rifampicin-induced persistant Staphylococcus aureus assessed as decrease in CFU at 16 times MIC measured for 10 hrs; format: functional
# [26] = system: Staphylococcus aureus; assay: Antimicrobial activity against Staphylococcus aureus incubated for 16 to 18 hrs by broth dilution assay; format: functional; details: time 16-18 hrs
# [27] = system: Staphylococcus aureus; assay: Inhibition of biofilm formation in Staphylococcus aureus assessed as decrease in bacterial count at 32 times MIC incubated for 24 hrs by CLSM analysis; format: functional, organism-based
# [28] = system: Staphylococcus aureus; assay: Inhibition of biofilm formation in Staphylococcus aureus assessed as reduction in number of live bacterial count at 16 times MIC incubated for 24 hrs; format: functional
# [29] = Toxicity in Kunming mouse model of subcutaneous abscess infected with Staphylococcus aureus assessed as histopathological abnormalities in kidney at 5 to 10 mg/kg, sc measured after 48 hrs by H and E staining based analysis; format: organism-based; details: in vivo, dose 5-10 mg/kg
# [30] = Toxicity in Kunming mouse model of subcutaneous abscess infected with Staphylococcus aureus assessed as damage in heart at 5 to 10 mg/kg, sc measured after 48 hrs by H and E staining based analysis; format: organism-based; details: in vivo, dose 5-10 mg/kg
# [31] = system: Staphylococcus aureus; assay: Bactericidal activity against Staphylococcus aureus measured for 3 to 6 hrs in presence of 50% sheep plasma; format: functional, organism-based; details: time 3-6 hrs
# [32] = Toxicity in Kunming mouse model of subcutaneous abscess infected with Staphylococcus aureus assessed as damage in liver at 5 to 10 mg/kg, sc measured after 48 hrs by H and E staining based analysis; format: organism-based; details: in vivo, dose 5-10 mg/kg
# [33] = system: Staphylococcus aureus; assay: Antibacterial activity against Staphylococcus aureus assessed as inhibition of bacterial growth at stationary phase at 32 times MIC incubated for 4 hrs; format: functional, organism-based
# [34] = system: Staphylococcus aureus; assay: Antibacterial activity against Staphylococcus aureus infected in Kunming mouse model of subcutaneous abscess assessed as decrease in neutrophil level in skin tissue at 5 mg/kg, sc measured after 48 hrs by H and E staining based analysis; format: functional, organism-based
# [35] = system: Staphylococcus aureus; assay: Induction of resistance development in drug-resistant Staphylococcus aureus at sub-MIC measured after 20 passages in presence of cefuroxime sodium; format: functional, organism-based
# [36] = system: Staphylococcus aureus; assay: Induction of resistance development in drug-resistant Staphylococcus aureus at sub-MIC measured after 20 passages in presence of ampicillin sodium; format: functional, organism-based
# [37] = Toxicity in Kunming mouse model of subcutaneous abscess infected with Staphylococcus aureus assessed as damage in kidney at 5 to 10 mg/kg, sc measured after 48 hrs by H and E staining based analysis; format: organism-based; details: in vivo, dose 5-10 mg/kg
# [38] = system: Staphylococcus aureus; assay: Induction of resistance development in drug-resistant Staphylococcus aureus at sub-MIC measured after 20 passages in presence of levofloxacin; format: functional, organism-based
# [39] = system: Staphylococcus aureus; assay: Inhibition of biofilm formation in Staphylococcus aureus assessed as punctate distribution at 32 times MIC incubated for 24 hrs by CLSM analysis; format: functional, organism-based
# [40] = system: Staphylococcus aureus; assay: Induction of resistance development in Staphylococcus aureus at sub-MIC measured after 20 passages; format: functional, organism-based
# [41] = system: Staphylococcus aureus; assay: Bactericidal activity against Staphylococcus aureus assessed as reduction in bacterial colony count at 4 to 8 times MIC incubated for 8 hrs by time kill assay; format: functional, organism-based
# [42] = system: Staphylococcus aureus; assay: Induction of cytoplasmic membrane depolarization in Staphylococcus aureus assessed as increase in fluorescence intensity at 32 ug/ml measured for 20 mins by DiSC3(5) dye based analysis; format: functional, organism-based; details: dose 32.0 µg/ml
# [43] = system: Staphylococcus aureus; assay: Antibacterial activity against Staphylococcus aureus in presence of 50% sheep plasma; format: functional, organism-based
# [44] = Hemolytic activity in sheep red blood cells incubated for 1 hr; format: toxicity, cell-based, Ovis aries, Erythrocyte
# [45] = system: Staphylococcus aureus; assay: Disruption of cell membrane in Staphylococcus aureus assessed as nucleic acid leakage measured after 2 hrs by fluorescence based analysis; format: functional, organism-based; details: dose 8-32 µg/ml
# [46] = system: Staphylococcus aureus; assay: Antibacterial activity against Staphylococcus aureus infected in Kunming mouse model of subcutaneous abscess assessed as surviving bacteria in skin tissue at 10 mg/kg, sc measured after 48 hrs relative to control; format: functional
# [47] = system: Staphylococcus aureus; assay: Induction of resistance development in drug-resistant Staphylococcus aureus at sub-MIC measured after 20 passages in presence of rifampicin; format: functional, organism-based
# [48] = system: Staphylococcus aureus; assay: Induction of inner membrane permeability in Staphylococcus aureus assessed as increase in fluorescence intensity at 32 ug/ml measured for 20 mins by PI dye based analysis; format: functional, organism-based; details: dose 32.0 µg/ml
# [49] = system: Staphylococcus aureus; assay: Induction of intracellular ROS accumulation in Staphylococcus aureus at 1 to 4 times MIC incubated overnight by DCFH-DA dye based analysis; format: functional, organism-based
# [50] = system: Staphylococcus aureus; assay: Antibacterial activity against Staphylococcus aureus infected in Kunming mouse model of subcutaneous abscess assessed as bacterial count in skin tissue at 10 mg/kg, sc measured after 48 hrs; format: functional
# [51] = system: Staphylococcus aureus; assay: Disruption of cell membrane in Staphylococcus aureus assessed as nucleic acid leakage at 32 ug/ml measured after 2 hrs by fluorescence based analysis; format: functional, organism-based; details: dose 32.0 µg/ml
# [52] = system: Staphylococcus aureus; assay: Disruption of cell membrane in Staphylococcus aureus assessed as protein leakage at 32 ug/ml measured after 2 hrs by fluorescence based analysis; format: functional, organism-based; details: dose 32.0 µg/ml
# [53] = system: Staphylococcus aureus; assay: Antibacterial activity against rifampicin-induced persistant Staphylococcus aureus assessed as decrease in CFU at 100 times MIC measured for 10 hrs; format: functional, organism-based
# [54] = system: Staphylococcus aureus; assay: Antibacterial activity against Staphylococcus aureus assessed as effect on quiescent cells at 100 to 200 times MIC incubated for 24 hrs; format: functional, organism-based
structure (smiles),measurement,setting,value
CCCCCCCCCCCCCCCC[n+]1ccc(-c2cc[n+](CC3=C(C(=O)[O-])N4C(=O)[C@@H](NC(=O)Cc5ccccc5)[C@H]4SC3)cc2)cc1.O=C([O-])C(F)(F)F,Activity,[1],Non-toxic
same,Activity,[2],Active
same,Activity,[3],99.87%
same,Activity,[4],Non-toxic
same,Activity,[5],Non-toxic
same,Activity,[6],inactive
same,inhibition,[7],Dose-dependent-effect
same,CC50 at 24 h,[8],15.7 µg/mL
same,Activity,[9],Dose-dependent-effect
same,MIC,[10],128 µg/mL
same,Activity,[11],inactive
same,Activity,[12],inactive
same,Activity,[13],Non-toxic
same,Activity,[14],Dose-dependent-effect
same,Activity,[15],Non-toxic
same,Activity,[16],Active; Mic Value Of Compound In Serum Was Equal To Mic In Mhb Medium
same,MIC,[17],128 µg/mL
same,Activity,[18],inactive
same,Activity,[19],Active
same,CC50 at 24 h,[20],34.7 µg/mL
same,Activity,[21],Non-toxic
same,Activity,[22],Active
same,inhibition,[23],"Active; Compound Activity Better Than Vancomycin, Rifampicin And Cephalothin"
same,MIC,[24],32 µg/mL
same,Activity,[25],~1 10^5CFU/ml
same,MIC,[26],4 µg/mL
same,inhibition,[27],Active
same,Activity,[28],~1 10^8CFU/ml
same,Activity,[29],Non-toxic
same,Activity,[30],Non-toxic
same,Activity,[31],Active
same,Activity,[32],Non-toxic
same,inhibition,[33],Active
same,Activity,[34],Active
same,Activity,[35],inactive
same,Activity,[36],inactive
same,Activity,[37],Non-toxic
same,Activity,[38],inactive
same,inhibition,[39],Active
same,Activity,[40],inactive
same,Activity,[41],Active
same,Activity,[42],Active
same,Activity,[43],Active; Mic Value Of Compound In Plasma Was Equal To Mic In Mhb Medium
same,HC50 at 1 h,[44],112 µg/mL
same,Activity,[45],Dose-dependent-effect
same,Activity,[46],0.13%
same,Activity,[47],inactive
same,Activity,[48],Active
CC(=O)OCC1=C(C(=O)O)N2C(=O)[C@@H](NC(=O)Cc3cccs3)[C@H]2SC1 [CEPHALOTHIN],Activity,[3],54%
same,Activity,[6],inactive
same,Activity,[49],inactive
same,MIC,[10],16 µg/mL
same,Activity,[11],inactive
same,Activity,[12],inactive
same,Activity,[16],Active; Mic Value Of Compound In Serum Was Equal To Mic In Mhb Medium
same,MIC,[17],16 µg/mL
same,Activity,[18],inactive
same,Activity,[50],~2 10^7CFU/ml
same,MIC,[24],32 µg/mL
same,MIC,[26],0.25 µg/mL
same,inhibition,[27],inactive
same,Activity,[51],inactive
same,Activity,[31],Active
same,Activity,[52],inactive
same,Activity,[53],inactive
same,Activity,[35],inactive
same,Activity,[54],inactive
same,Activity,[36],inactive
same,Activity,[38],inactive
same,Activity,[40],inactive
same,Activity,[43],Active; Mic Value Of Compound In Plasma Was Equal To Mic In Mhb Medium
same,HC50 at 1 h,[44],> 1280 µg/mL
same,Activity,[47],inactive
